Source: patent US7423038B2, “Compounds and compositions as protein kinase inhibitors” (IRM LLC (a Delaware Limited Liability Corporation), priority 2004, dated 2008)

What was measured:
MKK4 = molecular target: T1, MKK4 (Mus musculus, UniProt P47809); assay: Upstate KinaseProfiler radio-enzymatic filter binding assay, MKK4; type: biochemical; details: at a concentration of 10 μM; read-out: percentage inhibition of MKK4
T1 construct: purchased Upstate (KinaseProfiler panel)
Source text: (§1) “Kinase Panel” is a list of kinases comprising Abl(human), Abl(T315I), JAK2, JAK3, ALK, JNK1α1, ALK4, KDR, Aurora-A, Lck, Blk, MAFK1, Bmx, MAPKAP-K2, BRK, MEK1, CaMKII(rat), Met, CDK1/cyclinB, p70S6K, CHK2, PAK2, CK1, PDGFRα, CK2, PDK1, c-kit, Pim-2, c-RAF, PKA(h), CSK, PKBα, cSrc, PKCα, DYRK2, Plk3, EGFR, ROCK-I, Fes, Ron, FGFR3, Ros, Flt3, SAPK2α, Fms, SGK, Fyn, SIK, GSK3β, Syk, IGF-IR, Tie-2, IKKβ, TrKB, IR, WNK3, IRAK4, ZAP-70, ITK, AMPK(rat), LIMK1, Rsk2, Ax1, LKB1, SAFK2β, BrSK2, Lyn (h), SAPK3, BTK, MAPKAP-K3, SAPK4, CaMKIV, MARK1, Snk, CDK2/cyclinA, MINK, SRPK1, CDK3/cyclinE, MKK4(m), TAK1, CDK5/p25, MKK6(h), TBK1, CDK6/cyclinD3, MLCK, TrkA, CDK7/cyclinH/MAT1, MRCKβ, TSSK1, CHK1, MSK1, Yes, CK1d, MST2, ZIPK, c-Kit (D816V), MuSK, DAPK2, NEK2, DDR2, NEK6, DMPK, PAK4, DRAK1, PAR-1Bα, EphA1, PDGFRβ, EphA2, Pim-1, EphA5, PKBβ, EphB2, PKCβI, EphB4, PKCδ, FGFR1, PKCη, FGFR2, PKCθ, FGFR4, PKD2, Fgr, PKG1β, Flt1, PRK2, Hck, PYK2, HIPK2, Ret, IKKα, RIPK2, IRR, ROCK-II(human), JNK2α2, Rse, JNK3, Rsk1(h), PI3 Kγ, PI3 Kδ and PI3-Kβ. […]
(§2) Compounds of the invention are assessed for their ability to inhibit individual members of the kinase panel. […] The assay squares are transferred to a scintillation vial, 5 ml scintillation cocktail are added and ^32P incorporation (cpm) to the peptide substrate is quantified with a Beckman scintillation counter. […]

F317L Bcr-abl = molecular target: T2, F317L Bcr-abl (Homo sapiens, UniProt P00519, F317L); assay: Antiproliferative effect on Ba/F3 cells expressing F317L Bcr-abl; type: cell-based; details: F317L mutant
T2 construct: BCR (fusion partner); expressed in transfected cells; host or cells: Ba/F3 (murine pro-B cells); the other entry of the earlier key: BCR (P11274, Breakpoint cluster region protein)
Procedure: (§3) 32D-p210 cells are plated into 96 well TC plates at a density of 15,000 cells per well. 50 μL of two fold serial dilutions of the test compound (Cmax is 40 μM) are added to each well (STI571 is included as a positive control). After incubating the cells for 48 hours at 37° C., 5% CO2, 15 μl, of MTT (Promega) is added to each well and the cells are incubated for an additional 5 hours. The optical density at 570 nm is quantified spectrophotometrically and IC50 values, the concentration of compound required for 50% inhibition, determined from a dose response curve.
(§4) Compounds of the invention are tested for their antiproliferative effect on Ba/F3 cells expressing either wild type or the mutant forms of BCR-Abl (G250E, E255V, T315I, F317L, M351T) that confers resistance or diminished sensitivity to STI571. The antiproliferative effect of these compounds on the mutant-BCR-Abl expressing cells and on the non transformed cells were tested at 10, 3.3, 1.1 and 0.37 μM as described above (in media lacking IL3). The IC50 values of the compounds lacking toxicity on the untransformed cells were determined from the dose response curves obtained as describe above.

SAPK2α = molecular target: T3, SAPK2α (Homo sapiens, UniProt Q16539); assay: Upstate KinaseProfiler radio-enzymatic filter binding assay, SAPK2α; type: biochemical; details: at a concentration of 10 μM; read-out: percentage inhibition of SAPK2α
T3 construct: purchased Upstate (KinaseProfiler panel)
Procedure: (§5) Compounds of the invention are assessed for their ability to inhibit individual members of the kinase panel. The compounds are tested in duplicates at a final concentration of 10 μM following this generic protocol, Note that the kinase buffer composition and the substrates vary for the different kinases included in the “Upstate KinaseProfiler™” panel. Kinase buffer (2.5 μL, 10x—containing MnCl2 when required), active kinase (0.001-0.01 Units; 2.5 μL), specific or Poly(Glu-4-Tyr) peptide (5-500 μM or 0.01 mg/ml) in kinase buffer and kinase buffer ([…]; 5 μL) are mixed in an eppendorf on ice. A Mg/ATP mix (10 μL; 67.5 (or 33.75) mM MgCl2, 450 (or 225) μM ATP and 1 μCi/μl [γ-^32P]-ATP (3000 Ci/mmol)) is added and the reaction is incubated at about 30° C. for about 10 minutes. The reaction mixture is spotted (20 μL) onto a 2 cm×2 cm P81 (phosphocellulose, for positively charged peptide substrates) or Whatman No, 1 (for Poly (Glu-4-Tyr) peptide substrate) paper square. The assay squares are washed 4 times, for 5 minutes each, with 0.75% phosphoric acid and washed once with acetone for 5 minutes. The assay squares are transferred to a scintillation vial, 5 ml scintillation cocktail are added and ^32P incorporation (cpm) to the peptide substrate is quantified with a Beckman scintillation counter. Percentage inhibition is calculated for each reaction.

wild type Bcr-abl = molecular target: T4, wild type Bcr-abl (Homo sapiens, UniProt P00519); assay: Antiproliferative effect on Ba/F3 cells expressing wild type Bcr-abl; type: cell-based
T4 construct: BCR (fusion partner); expressed in transfected cells; host or cells: Ba/F3 (murine pro-B cells); the other entry of the earlier key: BCR (P11274, Breakpoint cluster region protein)
Procedure: as §3, §4

JNK1α1 = molecular target: T5, JNK1α1 (Homo sapiens, UniProt P45983); assay: Upstate KinaseProfiler radio-enzymatic filter binding assay, JNK1α1; type: biochemical; details: at a concentration of 10 μM; read-out: percentage inhibition of JNK1α1
T5 construct: purchased Upstate (KinaseProfiler panel)
Procedure: as §5

TrkB = molecular target: T6, TrkB (Homo sapiens, UniProt Q16620); assay: Upstate KinaseProfiler radio-enzymatic filter binding assay, TrkB; type: biochemical; details: at a concentration of 10 μM; read-out: percentage inhibition of TrkB
T6 construct: purchased Upstate (KinaseProfiler panel)
T6 sequence (Q16620 32-822): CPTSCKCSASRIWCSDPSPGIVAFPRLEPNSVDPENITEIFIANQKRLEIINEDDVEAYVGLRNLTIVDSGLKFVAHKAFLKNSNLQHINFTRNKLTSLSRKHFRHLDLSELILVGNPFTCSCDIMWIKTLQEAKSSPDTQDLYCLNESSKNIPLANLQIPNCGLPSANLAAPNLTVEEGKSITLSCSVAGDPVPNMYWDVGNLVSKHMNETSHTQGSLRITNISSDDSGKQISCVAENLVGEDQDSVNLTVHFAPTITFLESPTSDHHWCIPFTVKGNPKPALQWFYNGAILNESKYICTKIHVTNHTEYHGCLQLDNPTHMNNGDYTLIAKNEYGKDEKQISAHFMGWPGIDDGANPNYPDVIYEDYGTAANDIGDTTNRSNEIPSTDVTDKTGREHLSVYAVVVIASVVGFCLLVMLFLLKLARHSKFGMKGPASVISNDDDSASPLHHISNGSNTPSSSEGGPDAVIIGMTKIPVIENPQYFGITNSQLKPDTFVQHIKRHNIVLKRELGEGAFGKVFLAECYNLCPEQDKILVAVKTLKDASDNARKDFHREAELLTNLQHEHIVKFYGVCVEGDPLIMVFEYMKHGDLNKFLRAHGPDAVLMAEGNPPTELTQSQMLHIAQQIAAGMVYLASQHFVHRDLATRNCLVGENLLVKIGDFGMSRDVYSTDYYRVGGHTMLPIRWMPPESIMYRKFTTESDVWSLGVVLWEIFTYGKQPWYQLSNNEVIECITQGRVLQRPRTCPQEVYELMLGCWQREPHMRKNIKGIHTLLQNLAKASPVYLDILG
Procedure: as §5

SAPK2β = molecular target: T7, SAPK2β (Homo sapiens, UniProt Q15759); assay: Upstate KinaseProfiler radio-enzymatic filter binding assay, SAPK2β; type: biochemical; details: at a concentration of 10 μM; read-out: percentage inhibition of SAPK2β
T7 construct: purchased Upstate (KinaseProfiler panel)
T7 sequence (Q15759 whole entry): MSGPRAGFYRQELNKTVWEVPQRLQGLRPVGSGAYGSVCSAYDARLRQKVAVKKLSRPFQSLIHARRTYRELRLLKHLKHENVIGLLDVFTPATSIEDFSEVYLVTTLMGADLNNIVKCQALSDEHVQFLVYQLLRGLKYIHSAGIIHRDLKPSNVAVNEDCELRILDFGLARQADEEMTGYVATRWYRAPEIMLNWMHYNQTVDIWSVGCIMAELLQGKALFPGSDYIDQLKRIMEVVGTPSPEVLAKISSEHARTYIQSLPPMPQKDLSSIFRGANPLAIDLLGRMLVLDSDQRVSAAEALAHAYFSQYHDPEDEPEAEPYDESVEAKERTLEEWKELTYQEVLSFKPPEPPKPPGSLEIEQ
Procedure: as §5

E255V Bcr-abl = molecular target: T8, E255V Bcr-abl (Homo sapiens, UniProt P00519, E255V); assay: Antiproliferative effect on Ba/F3 cells expressing E255V Bcr-abl; type: cell-based; details: E255V mutant
T8 construct: BCR (fusion partner); expressed in transfected cells; host or cells: Ba/F3 (murine pro-B cells); the other entry of the earlier key: BCR (P11274, Breakpoint cluster region protein)
Procedure: as §3, §4

Bmx = molecular target: T9, Bmx (Homo sapiens, UniProt P51813); assay: Upstate KinaseProfiler radio-enzymatic filter binding assay, Bmx; type: biochemical; details: at a concentration of 10 μM; read-out: percentage inhibition of Bmx
T9 construct: purchased Upstate (KinaseProfiler panel)
T9 sequence (P51813 whole entry): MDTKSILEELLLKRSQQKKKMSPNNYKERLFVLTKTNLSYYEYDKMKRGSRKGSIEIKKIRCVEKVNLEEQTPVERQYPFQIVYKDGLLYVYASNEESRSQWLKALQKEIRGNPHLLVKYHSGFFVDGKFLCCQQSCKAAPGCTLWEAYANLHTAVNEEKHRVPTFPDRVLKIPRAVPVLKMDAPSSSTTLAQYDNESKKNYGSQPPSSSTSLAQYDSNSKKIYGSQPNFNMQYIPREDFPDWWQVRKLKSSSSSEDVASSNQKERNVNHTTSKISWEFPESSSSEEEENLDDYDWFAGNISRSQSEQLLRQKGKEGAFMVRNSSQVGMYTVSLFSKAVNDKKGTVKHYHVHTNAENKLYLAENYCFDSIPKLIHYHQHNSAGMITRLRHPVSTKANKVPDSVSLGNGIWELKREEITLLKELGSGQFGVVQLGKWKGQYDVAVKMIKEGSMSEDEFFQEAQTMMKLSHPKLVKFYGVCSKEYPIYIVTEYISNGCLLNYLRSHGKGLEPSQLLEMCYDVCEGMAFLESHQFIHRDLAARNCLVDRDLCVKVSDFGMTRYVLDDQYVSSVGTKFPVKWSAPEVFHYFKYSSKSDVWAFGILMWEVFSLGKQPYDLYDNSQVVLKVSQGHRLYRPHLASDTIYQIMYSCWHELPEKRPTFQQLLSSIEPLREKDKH
Procedure: as §5

c-RAF = molecular target: T10, c-RAF (Homo sapiens, UniProt P04049); assay: Upstate KinaseProfiler radio-enzymatic filter binding assay, c-RAF; type: biochemical; details: at a concentration of 10 μM; read-out: percentage inhibition of c-RAF
T10 construct: purchased Upstate (KinaseProfiler panel)
T10 sequence (P04049 whole entry): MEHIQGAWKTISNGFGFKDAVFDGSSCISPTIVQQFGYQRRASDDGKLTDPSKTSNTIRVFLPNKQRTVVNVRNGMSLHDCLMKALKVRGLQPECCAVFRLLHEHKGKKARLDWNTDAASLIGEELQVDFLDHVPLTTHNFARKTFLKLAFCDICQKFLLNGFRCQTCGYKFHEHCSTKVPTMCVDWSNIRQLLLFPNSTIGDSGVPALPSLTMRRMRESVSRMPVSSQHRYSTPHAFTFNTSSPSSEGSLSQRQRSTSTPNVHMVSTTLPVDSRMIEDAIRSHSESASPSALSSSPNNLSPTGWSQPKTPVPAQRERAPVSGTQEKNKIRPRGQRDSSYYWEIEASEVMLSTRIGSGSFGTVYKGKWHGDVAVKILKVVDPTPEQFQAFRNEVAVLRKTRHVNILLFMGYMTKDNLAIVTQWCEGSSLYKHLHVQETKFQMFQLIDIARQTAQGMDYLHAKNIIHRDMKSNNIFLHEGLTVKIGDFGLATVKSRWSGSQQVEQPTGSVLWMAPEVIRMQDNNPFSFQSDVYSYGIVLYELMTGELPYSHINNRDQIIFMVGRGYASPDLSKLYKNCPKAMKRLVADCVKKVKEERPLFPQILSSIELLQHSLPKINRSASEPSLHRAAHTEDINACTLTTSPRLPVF
Procedure: as §5

Lck = molecular target: T11, Lck (Homo sapiens, UniProt P06239); assay: Upstate KinaseProfiler radio-enzymatic filter binding assay, Lck; type: biochemical; details: at a concentration of 10 μM; read-out: percentage inhibition of Lck
T11 construct: purchased Upstate (KinaseProfiler panel)
T11 sequence (P06239 whole entry): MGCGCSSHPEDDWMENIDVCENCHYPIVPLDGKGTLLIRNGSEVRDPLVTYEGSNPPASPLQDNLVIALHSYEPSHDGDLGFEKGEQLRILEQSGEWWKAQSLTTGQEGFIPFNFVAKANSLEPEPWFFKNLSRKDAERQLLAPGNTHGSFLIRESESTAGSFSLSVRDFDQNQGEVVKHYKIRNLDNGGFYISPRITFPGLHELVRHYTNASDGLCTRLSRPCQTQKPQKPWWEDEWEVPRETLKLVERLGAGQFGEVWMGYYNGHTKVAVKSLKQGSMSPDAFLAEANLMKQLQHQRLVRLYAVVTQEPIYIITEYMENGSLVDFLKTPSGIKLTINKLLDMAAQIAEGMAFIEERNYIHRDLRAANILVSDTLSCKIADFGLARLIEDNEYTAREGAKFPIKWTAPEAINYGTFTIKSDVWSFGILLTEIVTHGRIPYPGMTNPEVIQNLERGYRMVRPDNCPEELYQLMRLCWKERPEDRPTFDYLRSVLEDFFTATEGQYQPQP
Procedure: as §5

FGFR3 = molecular target: T12, FGFR3 (Homo sapiens, UniProt P22607); assay: Upstate KinaseProfiler radio-enzymatic filter binding assay, FGFR3; type: biochemical; details: at a concentration of 10 μM; read-out: percentage inhibition of FGFR3
T12 construct: purchased Upstate (KinaseProfiler panel)
Procedure: as §5

IR = molecular target: T13, IR (Homo sapiens, UniProt P06213); assay: Upstate KinaseProfiler radio-enzymatic filter binding assay, IR; type: biochemical; details: at a concentration of 10 μM; read-out: percentage inhibition of IR
T13 construct: purchased Upstate (KinaseProfiler panel)
Procedure: as §5

MKK6 = molecular target: T14, MKK6 (Homo sapiens, UniProt P52564); assay: Upstate KinaseProfiler radio-enzymatic filter binding assay, MKK6; type: biochemical; details: at a concentration of 10 μM; read-out: percentage inhibition of MKK6
T14 construct: purchased Upstate (KinaseProfiler panel)
T14 sequence (P52564 whole entry): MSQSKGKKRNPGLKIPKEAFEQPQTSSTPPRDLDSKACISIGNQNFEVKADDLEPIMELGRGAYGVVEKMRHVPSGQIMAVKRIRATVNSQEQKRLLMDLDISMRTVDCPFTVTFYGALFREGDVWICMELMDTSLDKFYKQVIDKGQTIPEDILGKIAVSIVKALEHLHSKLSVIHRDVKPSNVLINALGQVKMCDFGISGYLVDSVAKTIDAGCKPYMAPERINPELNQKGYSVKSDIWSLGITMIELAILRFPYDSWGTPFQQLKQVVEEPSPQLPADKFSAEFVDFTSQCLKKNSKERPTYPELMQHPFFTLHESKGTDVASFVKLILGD
Source text: as §1, §2

CSK = molecular target: T15, CSK (Homo sapiens, UniProt P41240); assay: Upstate KinaseProfiler radio-enzymatic filter binding assay, CSK; type: biochemical; details: at a concentration of 10 μM; read-out: percentage inhibition of CSK
T15 construct: purchased Upstate (KinaseProfiler panel)
Procedure: as §5

Fes = molecular target: T16, Fes (Homo sapiens, UniProt P07332); assay: Upstate KinaseProfiler radio-enzymatic filter binding assay, Fes; type: biochemical; details: at a concentration of 10 μM; read-out: percentage inhibition of Fes
T16 construct: purchased Upstate (KinaseProfiler panel)
Procedure: as §5

Syk = molecular target: T17, Syk (Homo sapiens, UniProt P43405); assay: Upstate KinaseProfiler radio-enzymatic filter binding assay, Syk; type: biochemical; details: at a concentration of 10 μM; read-out: percentage inhibition of Syk
T17 construct: purchased Upstate (KinaseProfiler panel)
Procedure: as §5

PDGFRα = molecular target: T18, PDGFRα (Homo sapiens, UniProt P16234); assay: Upstate KinaseProfiler radio-enzymatic filter binding assay, PDGFRα; type: biochemical; details: at a concentration of 10 μM; read-out: percentage inhibition of PDGFRα
T18 construct: purchased Upstate (KinaseProfiler panel)
Procedure: as §5

JNK2α2 = molecular target: T19, JNK2α2 (Homo sapiens, UniProt P45984); assay: Upstate KinaseProfiler radio-enzymatic filter binding assay, JNK2α2; type: biochemical; details: at a concentration of 10 μM; read-out: percentage inhibition of JNK2α2
T19 construct: purchased Upstate (KinaseProfiler panel)
T19 sequence (P45984 whole entry): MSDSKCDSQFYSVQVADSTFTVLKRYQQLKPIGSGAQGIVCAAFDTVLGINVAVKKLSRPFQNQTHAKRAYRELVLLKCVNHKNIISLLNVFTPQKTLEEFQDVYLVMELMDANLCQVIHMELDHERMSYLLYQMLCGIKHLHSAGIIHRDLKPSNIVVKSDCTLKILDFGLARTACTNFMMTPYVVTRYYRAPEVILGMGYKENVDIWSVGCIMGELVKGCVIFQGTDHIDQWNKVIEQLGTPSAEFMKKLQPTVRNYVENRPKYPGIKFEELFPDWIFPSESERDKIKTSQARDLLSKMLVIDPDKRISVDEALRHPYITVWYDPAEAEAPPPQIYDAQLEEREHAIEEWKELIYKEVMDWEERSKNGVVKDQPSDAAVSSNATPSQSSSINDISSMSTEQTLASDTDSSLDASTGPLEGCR
Procedure: as §5

G250E Bcr-abl = molecular target: T20, G250E Bcr-abl (Homo sapiens, UniProt P00519, G250E); assay: Antiproliferative effect on Ba/F3 cells expressing G250E Bcr-abl; type: cell-based; details: G250E mutant
T20 construct: BCR (fusion partner); expressed in transfected cells; host or cells: Ba/F3 (murine pro-B cells); the other entry of the earlier key: BCR (P11274, Breakpoint cluster region protein)
Procedure: as §3, §4

GSK3β = molecular target: T21, GSK3β (Homo sapiens, UniProt P49841); assay: Upstate KinaseProfiler radio-enzymatic filter binding assay, GSK3β; type: biochemical; details: at a concentration of 10 μM; read-out: percentage inhibition of GSK3β
T21 construct: purchased Upstate (KinaseProfiler panel)
Procedure: as §5

Rsk1 = molecular target: T22, Rsk1 (Homo sapiens, UniProt Q15418); assay: Upstate KinaseProfiler radio-enzymatic filter binding assay, Rsk1; type: biochemical; details: at a concentration of 10 μM; read-out: percentage inhibition of Rsk1
T22 construct: purchased Upstate (KinaseProfiler panel)
Source text: as §1, §2

M351T Bcr-abl = molecular target: T23, M351T Bcr-abl (Homo sapiens, UniProt P00519, M351T); assay: Antiproliferative effect on Ba/F3 cells expressing M351T Bcr-abl; type: cell-based; details: M351T mutant
T23 construct: BCR (fusion partner); expressed in transfected cells; host or cells: Ba/F3 (murine pro-B cells); the other entry of the earlier key: BCR (P11274, Breakpoint cluster region protein)
Procedure: as §3, §4

T315I Bcr-abl = molecular target: T24, T315I Bcr-abl (Homo sapiens, UniProt P00519, T315I); assay: Antiproliferative effect on Ba/F3 cells expressing T315I Bcr-abl; type: cell-based; details: T315I mutant
T24 construct: BCR (fusion partner); expressed in transfected cells; host or cells: Ba/F3 (murine pro-B cells); the other entry of the earlier key: BCR (P11274, Breakpoint cluster region protein)
Procedure: as §3, §4

Flt3 = molecular target: T25, Flt3 (Homo sapiens, UniProt P36888); assay: Upstate KinaseProfiler radio-enzymatic filter binding assay, Flt3; type: biochemical; details: at a concentration of 10 μM; read-out: percentage inhibition of Flt3
T25 construct: purchased Upstate (KinaseProfiler panel)
T25 sequence (P36888 27-993): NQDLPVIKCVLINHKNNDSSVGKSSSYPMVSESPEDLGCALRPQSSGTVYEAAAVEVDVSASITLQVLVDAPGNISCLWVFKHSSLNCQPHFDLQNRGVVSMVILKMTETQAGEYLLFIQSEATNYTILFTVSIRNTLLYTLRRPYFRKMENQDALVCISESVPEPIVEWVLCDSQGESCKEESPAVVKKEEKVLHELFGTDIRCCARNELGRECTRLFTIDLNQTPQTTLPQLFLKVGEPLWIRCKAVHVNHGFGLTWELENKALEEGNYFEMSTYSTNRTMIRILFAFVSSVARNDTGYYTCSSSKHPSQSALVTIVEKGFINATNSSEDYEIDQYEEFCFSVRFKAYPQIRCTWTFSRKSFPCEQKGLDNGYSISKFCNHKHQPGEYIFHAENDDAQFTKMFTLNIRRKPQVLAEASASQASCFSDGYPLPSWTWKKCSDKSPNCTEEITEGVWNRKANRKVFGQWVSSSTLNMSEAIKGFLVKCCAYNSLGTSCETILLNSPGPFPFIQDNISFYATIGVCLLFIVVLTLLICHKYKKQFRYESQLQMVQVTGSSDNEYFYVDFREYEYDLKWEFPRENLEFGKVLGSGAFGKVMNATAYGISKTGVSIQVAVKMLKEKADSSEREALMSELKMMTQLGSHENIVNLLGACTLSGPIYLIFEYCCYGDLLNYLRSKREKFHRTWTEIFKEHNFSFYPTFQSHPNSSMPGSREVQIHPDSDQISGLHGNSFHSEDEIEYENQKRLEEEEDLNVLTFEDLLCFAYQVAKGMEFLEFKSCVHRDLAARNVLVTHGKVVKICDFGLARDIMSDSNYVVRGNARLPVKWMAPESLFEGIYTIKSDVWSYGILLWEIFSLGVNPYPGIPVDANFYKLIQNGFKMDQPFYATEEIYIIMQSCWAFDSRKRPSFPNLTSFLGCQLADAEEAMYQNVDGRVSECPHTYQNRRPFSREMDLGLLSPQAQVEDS
Procedure: as §5

p70S6K = molecular target: T26, p70S6K (Homo sapiens, UniProt P23443); assay: Upstate KinaseProfiler radio-enzymatic filter binding assay, p70S6K; type: biochemical; details: at a concentration of 10 μM; read-out: percentage inhibition of p70S6K
T26 construct: purchased Upstate (KinaseProfiler panel)
Procedure: as §5

inhibition at 10 µM (MKK4): 92%
IC50 (F317L Bcr-abl): < 0.0005 µM
inhibition at 10 µM (SAPK2α): 95%
IC50 (wild type Bcr-abl): < 0.0005 µM
inhibition at 10 µM (JNK1α1): 98%
inhibition at 10 µM (TrkB): 96%
inhibition at 10 µM (SAPK2β): 99%
IC50 (E255V Bcr-abl): 0.013 µM
inhibition at 10 µM (Bmx): 100%
inhibition at 10 µM (c-RAF): 100%
inhibition at 10 µM (Lck): 98%
inhibition at 10 µM (FGFR3): 98%
inhibition at 10 µM (IR): 60%
inhibition at 10 µM (MKK6): 97%
inhibition at 10 µM (CSK): 98%
inhibition at 10 µM (Fes): 100%
inhibition at 10 µM (Syk): 76%
inhibition at 10 µM (PDGFRα): 76%
inhibition at 10 µM (JNK2α2): 99%
IC50 (G250E Bcr-abl): 0.023 µM
inhibition at 10 µM (GSK3β): 53%
inhibition at 10 µM (Rsk1): 90%
IC50 (M351T Bcr-abl): < 0.0005 µM
IC50 (T315I Bcr-abl): 0.055 µM
inhibition at 10 µM (Flt3): 64%
inhibition at 10 µM (p70S6K): 98%
SMILES: Cc1ccc(Nc2ncc3nc(-c4cc(NC(=O)c5cccc(C(F)(F)F)c5)ccc4C)c(=O)n(C)c3n2)cn1 [Example 2, N-[4-methyl-3-(8-methyl-2-(6-methyl-pyridin-3-ylamino)7-oxo-7,8-dihydropteridin-6-yl)-phenyl]-3-trifluoromethyl-benzamide]
